Measured values reported in patent publication US20260098061A1, “EPHA2-BINDING PENDING PEPTIDE AND COMPOSITION COMPRISING SAME” (PeptiDream Inc., priority 2022, published 2026).
Numbered stars: 1 amine (or outer) side, 2 acyl side, 3 side chain; on linkers, the order of the positions; unused ones are H or OH. Bridge positions count the residues as written; N and C are the ends. Square brackets hold non-standard residues; d marks the D form. Side chains are listed from the residue outwards. Peptide text beside a SMILES is read from it. * marks the point of attachment. NH(1-deoxy-D-glucityl) = OC[C@@H](O)[C@@H](O)[C@H](O)[C@@H](O)CN*; NMePhe(4-Cl) = CN[C@@H](Cc1ccc(Cl)cc1)C(=O)O; Piperazinyl(4-CH2COOH) = O=C(O)CN1CCN(*)CC1; Trp(1-Me) = Cn1cc(C[C@H](N)C(=O)O)c2ccccc21; NMe3Pal = CN[C@@H](Cc1cccnc1)C(=O)O; NMeF = CN[C@@H](Cc1ccccc1)C(=O)O; Gly(cBu) = N[C@H](C(=O)O)C1CCC1; NMeE = CN[C@@H](CCC(=O)O)C(=O)O; Aad = N[C@@H](CCCC(=O)O)C(=O)O; dAhp(2) = CCCCC[C@@H](N)C(=O)O; CO = O=C([*:1])[*:2]

Biological target: T1, Recombinant Human EphA2 Fc Protein (Homo sapiens, UniProt P29317)
T1 construct: purchased Elabscience
Assay: SPR interaction analysis (Biacore T200), kinetics of peptides against EphA2
Format: binding
Details: Recombinant Human EphA2 Fc Protein captured by Human Antibody Capture kit; single-cycle kinetics; 25° C.; HBS-P+ buffer with 1% DMSO
Method in brief: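 KD derived from ka and kd, fitted on baseline-subtracted sensorgrams from single-cycle kinetics of five peptide dilutions. Running buffer: HBS-P+ (pH 7.4) plus 1% DMSO, 25° C, Biacore T200. Recombinant human EphA2-Fc held on an antibody capture surface.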

| Structure (SMILES) | Kd [nM] |
| --- | --- |
| C[C@H]1NC(=O)CSC[C@@H](C(N)=O)NC(=O)[C@H](CCCC(N)=O)NC(=O)[C@H]([C@@H](C)O)NC(=O)[C@H](Cc2cn(C)c3ccccc23)NC(=O)[C@H](CCC(=O)NC[C@H](O)[C@@H](O)[C@H](O)[C@H](O)CO)NC(=O)[C@H](Cc2cn(C)c3ccccc23)NC(=O)[C@H](Cc2cccnc2)N(C)C(=O)[C@H](CCCC(N)=O)NC(=O)[C@H](C2CCC2)NC(=O)[C@H](CC(N)=O)NC(=O)[C@H](Cc2ccccc2)N(C)C1=O [PDC_EphA2-00013704, da-MeF-N-Cbg-Hgn-Me3Py-W1Me-Qglucamine-W1Me-T-Hgn-C-NH2] ({CH2CO}-[dA][NMeF]N[Gly(cBu)][Aad](NH2)[NMe3Pal][Trp(1-Me)]E(NH(1-deoxy-D-glucityl))[Trp(1-Me)]T[Aad](NH2)C-NH2; thioether N-12) | < 1 |
| C[C@H]1NC(=O)CSC[C@@H](C(N)=O)NC(=O)[C@H](CCCC(N)=O)NC(=O)[C@H]([C@@H](C)O)NC(=O)[C@H](Cc2cn(C)c3ccccc23)NC(=O)[C@H](CCC(=O)NC[C@H](O)[C@@H](O)[C@H](O)[C@H](O)CO)NC(=O)[C@H](Cc2cn(C)c3ccccc23)NC(=O)[C@H](Cc2cccnc2)N(C)C(=O)[C@H](CCCC(N)=O)NC(=O)[C@H](C2CCC2)NC(=O)[C@H](CC(N)=O)NC(=O)[C@H](Cc2cccnc2)N(C)C1=O [PDC_EphA2-00013705, da-Me3Py-N-Cbg-Hgn-Me3Py-W1Me-Qglucamine-W1Me-T-Hgn-C-NH2] ({CH2CO}-[dA][NMe3Pal]N[Gly(cBu)][Aad](NH2)[NMe3Pal][Trp(1-Me)]E(NH(1-deoxy-D-glucityl))[Trp(1-Me)]T[Aad](NH2)C-NH2; thioether N-12) | < 1 |
| C[C@H]1NC(=O)CSC[C@@H](C(N)=O)NC(=O)[C@H](CCCC(N)=O)NC(=O)[C@H]([C@@H](C)O)NC(=O)[C@H](Cc2cn(C)c3ccccc23)NC(=O)[C@H](CCC(=O)NC[C@H](O)[C@@H](O)[C@H](O)[C@H](O)CO)NC(=O)[C@H](Cc2cn(C)c3ccccc23)NC(=O)[C@H](Cc2ccccc2)N(C)C(=O)[C@H](CCCC(N)=O)NC(=O)[C@H](C2CCC2)NC(=O)[C@H](CC(N)=O)NC(=O)[C@H](Cc2ccccc2)N(C)C1=O [PDC_EphA2-00013917, da-MeF-N-Cbg-Hgn-MeF-W1Me-QGlucamine-W1Me-T-Hgn-C-NH2] ({CH2CO}-[dA][NMeF]N[Gly(cBu)][Aad](NH2)[NMeF][Trp(1-Me)]E(NH(1-deoxy-D-glucityl))[Trp(1-Me)]T[Aad](NH2)C-NH2; thioether N-12) | < 1 |
| CCCCC[C@H]1NC(=O)CSC[C@@H](C(N)=O)NC(=O)[C@H](CCCC(N)=O)NC(=O)[C@H]([C@@H](C)O)NC(=O)[C@H](Cc2cn(C)c3ccccc23)NC(=O)[C@H](CCCCNC(=O)N2CCN(CC(=O)O)CC2)NC(=O)[C@H](Cc2cn(C)c3ccccc23)NC(=O)[C@H](Cc2ccccc2)N(C)C(=O)[C@H](CCCC(=O)O)NC(=O)[C@H](CC(C)C)NC(=O)[C@H](CC(N)=O)NC(=O)[C@H](Cc2cccnc2)N(C)C1=O [PDC_EphA2-00018526, dahp-Me3Py-N-L-Hgl-MeF-W1Me-KCOpipzaa-W1Me-T-Hgn-C-NH2] ({CH2CO}-[dAhp(2)][NMe3Pal]NL[Aad][NMeF][Trp(1-Me)]K([CO-Piperazinyl(4-CH2COOH)])[Trp(1-Me)]T[Aad](NH2)C-NH2; thioether N-12) | < 1 |
| CC(C)C[C@@H]1NC(=O)[C@H](CC(N)=O)NC(=O)[C@H](Cc2cccnc2)N(C)C(=O)[C@@H](C)NC(=O)CSC[C@@H](C(N)=O)NC(=O)[C@H](CCCC(N)=O)NC(=O)[C@H]([C@@H](C)O)NC(=O)[C@H](Cc2cn(C)c3ccccc23)NC(=O)[C@H](CCCCNC(=O)N2CCN(CC(=O)O)CC2)NC(=O)[C@H](Cc2cn(C)c3ccccc23)NC(=O)[C@H](Cc2ccc(Cl)cc2)N(C)C(=O)[C@H](CCCC(=O)O)NC1=O [PDC_EphA2-00018527, da-Me3Py-N-L-Hgl-MeF4C-W1Me-KCOpipzaa-W1Me-T-Hgn-C-NH2] ({CH2CO}-[dA][NMe3Pal]NL[Aad][NMePhe(4-Cl)][Trp(1-Me)]K([CO-Piperazinyl(4-CH2COOH)])[Trp(1-Me)]T[Aad](NH2)C-NH2; thioether N-12) | < 1 |
| CNC(=O)C[C@@H]1NC(=O)[C@H]([C@@H](C)O)NC(=O)[C@H](Cc2cn(C)c3ccccc23)NC(=O)[C@H](CCCCNC(=O)N2CCN(CC(=O)O)CC2)NC(=O)[C@H](Cc2cn(C)c3ccccc23)NC(=O)[C@H](Cc2ccccc2)N(C)C(=O)[C@H](CCCC(=O)O)NC(=O)[C@H](CC(C)C)NC(=O)[C@H](CC(N)=O)NC(=O)[C@H](Cc2cccnc2)N(C)C(=O)[C@@H](C)NC(=O)CSC[C@@H](C(N)=O)NC1=O [PDC_EphA2-00018528, da-Me3Py-N-L-Hgl-MeF-W1Me-KCOpipzaa-W1Me-T-Nmm-C-NH2] ({CH2CO}-[dA][NMe3Pal]NL[Aad][NMeF][Trp(1-Me)]K([CO-Piperazinyl(4-CH2COOH)])[Trp(1-Me)]TD(NHMe)C-NH2; thioether N-12) | < 1 |
| CC(C)C[C@@H]1NC(=O)[C@H](CC(N)=O)NC(=O)[C@H](Cc2cccnc2)N(C)C(=O)[C@@H](C)NC(=O)CSC[C@@H](C(N)=O)NC(=O)[C@H](CC(=O)N(C)C)NC(=O)[C@H]([C@@H](C)O)NC(=O)[C@H](Cc2cn(C)c3ccccc23)NC(=O)[C@H](CCCCNC(=O)N2CCN(CC(=O)O)CC2)NC(=O)[C@H](Cc2cn(C)c3ccccc23)NC(=O)[C@H](Cc2ccccc2)N(C)C(=O)[C@H](CCCC(=O)O)NC1=O [PDC_EphA2-00018529, da-Me3Py-N-L-Hgl-MeF-W1Me-KCOpipzaa-W1Me-T-Ndm-C-NH2] ({CH2CO}-[dA][NMe3Pal]NL[Aad][NMeF][Trp(1-Me)]K([CO-Piperazinyl(4-CH2COOH)])[Trp(1-Me)]TD(NMe2)C-NH2; thioether N-12) | < 1 |
| CCCCC[C@H]1NC(=O)CSC[C@@H](C(N)=O)NC(=O)[C@H](CCCC(N)=O)NC(=O)[C@H]([C@@H](C)O)NC(=O)[C@H](Cc2cn(C)c3ccccc23)NC(=O)[C@H](CCCCNC(=O)N2CCN(CC(=O)O)CC2)NC(=O)[C@H](Cc2cn(C)c3ccccc23)NC(=O)[C@H](CCC(=O)O)N(C)C(=O)[C@H](CCCC(N)=O)NC(=O)[C@H](CC(C)C)NC(=O)[C@H](CC(N)=O)NC(=O)[C@H](Cc2cccnc2)N(C)C1=O [PDC_EphA2-00018530, dahp-Me3Py-N-L-Hgn-MeE-W1Me-KCOpipzaa-W1Me-T-Hgn-C-NH2] ({CH2CO}-[dAhp(2)][NMe3Pal]NL[Aad](NH2)[NMeE][Trp(1-Me)]K([CO-Piperazinyl(4-CH2COOH)])[Trp(1-Me)]T[Aad](NH2)C-NH2; thioether N-12) | < 1 |
| CNC(=O)C[C@@H]1NC(=O)[C@H](CC(C)C)NC(=O)[C@H](CC(N)=O)NC(=O)[C@H](Cc2cccnc2)N(C)C(=O)[C@@H](C)NC(=O)CSC[C@@H](C(N)=O)NC(=O)[C@H](CCCC(N)=O)NC(=O)[C@H]([C@@H](C)O)NC(=O)[C@H](Cc2cn(C)c3ccccc23)NC(=O)[C@H](CCCCNC(=O)N2CCN(CC(=O)O)CC2)NC(=O)[C@H](Cc2cn(C)c3ccccc23)NC(=O)[C@H](CCC(=O)O)N(C)C1=O [PDC_EphA2-00018531, da-Me3Py-N-L-Nmm-MeE-W1Me-KCOpipzaa-W1Me-T-Hgn-C-NH2] ({CH2CO}-[dA][NMe3Pal]NLD(NHMe)[NMeE][Trp(1-Me)]K([CO-Piperazinyl(4-CH2COOH)])[Trp(1-Me)]T[Aad](NH2)C-NH2; thioether N-12) | < 1 |
